In patent EP2356213B1, “STEM CELL AGGREGATE SUSPENSION COMPOSITIONS AND METHODS FOR DIFFERENTIATION THEREOF” (VIACYTE, INC., priority 2008, dated 2010):
“Also recorded” adds a separate entry of the source.

What was measured:
ErbB2 = biological target: T1, ErbB2 (Homo sapiens, UniProt P04626); assay: Western blotting of ErbB2 autophosphorylation in starved/heregulin pulsed hESCs; format: cell-based; details: starved/heregulin (HRG) pulsed hESCs in DC-HAIF
T1 construct: endogenous in cells; host or cells: human embryonic stem cells (hESCs) growing in DC-HAIF
T1 sequence (P04626 23-1255): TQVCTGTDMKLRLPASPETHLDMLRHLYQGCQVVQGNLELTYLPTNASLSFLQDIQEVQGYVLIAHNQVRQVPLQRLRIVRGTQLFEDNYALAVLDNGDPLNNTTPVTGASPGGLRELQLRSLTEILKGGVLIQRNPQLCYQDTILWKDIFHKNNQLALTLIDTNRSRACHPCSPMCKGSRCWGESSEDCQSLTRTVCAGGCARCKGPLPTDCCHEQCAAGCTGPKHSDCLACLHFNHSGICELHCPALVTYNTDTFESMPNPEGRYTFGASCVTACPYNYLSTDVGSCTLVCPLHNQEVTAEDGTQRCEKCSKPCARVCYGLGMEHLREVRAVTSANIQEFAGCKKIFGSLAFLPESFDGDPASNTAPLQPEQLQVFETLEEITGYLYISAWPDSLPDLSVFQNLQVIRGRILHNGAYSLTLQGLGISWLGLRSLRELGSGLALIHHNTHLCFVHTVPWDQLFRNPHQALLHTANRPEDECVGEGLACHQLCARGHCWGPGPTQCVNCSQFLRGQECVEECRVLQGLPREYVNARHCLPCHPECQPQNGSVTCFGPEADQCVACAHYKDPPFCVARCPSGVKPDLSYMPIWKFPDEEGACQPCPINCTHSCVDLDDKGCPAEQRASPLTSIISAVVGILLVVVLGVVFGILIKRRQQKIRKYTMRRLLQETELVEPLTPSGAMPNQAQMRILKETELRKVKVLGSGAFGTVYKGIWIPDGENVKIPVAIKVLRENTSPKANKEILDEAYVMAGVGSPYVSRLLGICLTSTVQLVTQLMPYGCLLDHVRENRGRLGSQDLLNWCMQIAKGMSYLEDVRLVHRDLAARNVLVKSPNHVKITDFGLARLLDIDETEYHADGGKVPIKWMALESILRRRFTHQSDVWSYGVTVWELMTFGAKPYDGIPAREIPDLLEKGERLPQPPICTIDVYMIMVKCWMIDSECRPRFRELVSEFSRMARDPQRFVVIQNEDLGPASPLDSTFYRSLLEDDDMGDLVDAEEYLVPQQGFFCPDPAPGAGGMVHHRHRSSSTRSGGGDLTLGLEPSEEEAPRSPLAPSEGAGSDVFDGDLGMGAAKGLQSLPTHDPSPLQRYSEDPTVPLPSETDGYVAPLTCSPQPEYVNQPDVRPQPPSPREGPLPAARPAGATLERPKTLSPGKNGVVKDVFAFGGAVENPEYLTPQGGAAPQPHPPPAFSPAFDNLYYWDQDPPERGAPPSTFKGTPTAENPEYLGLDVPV
Excerpt: (§1) Colony and cell-counting assays confirmed that LongR3-IGFl and HRG played the major roles in self-renewal and proliferation in the context of one of the embodiments of the present invention (Fig. 6D, 6E). Phosphorylation of IGF1R, IR, […], ErbB2, and ErbB3 was also observed in both steady-state DC-HAIF cultures, and in starved cultures that were pulsed with DC-HAIF (Fig. 6F).

BG02 hESCs = assay: Proliferation of hESCs in conditioned medium with AG825; format: cell-based, human
Excerpt: as §1

R1 mouse ES cells = assay: Effect of ErbB1/ErbB2 inhibitors on proliferation of mouse ES cells (alkaline phosphatase staining, 8 days); format: cell-based
Method: AG1478 and AG879 were used to examine the role of HRG/ErbB signaling in mouse ES cells. R1 mouse ES cells were maintained in standard conditions in DMEM, 10% FBS, 10% KSR, 0.5 U/mL penicillin, 0.5 U/mL streptomycin, 1xNEAA, 1 mM sodium pyruvate, 1000 U/mL LIF (ESGRO), 0.1 mM β-ME, and were passaged with 0.5% trypsin/EDTA. 2x10^5 cells/well were plated in 6 well trays on MATRIGEL™ diluted at 1:1000. The day after plating, DMSO (carrier control), 1-50 µM AG1478, or 1-50 µM AG879 was added with fresh medium. The cells were cultured an additional 8 days, with daily media changes. The cultures were then fixed and stained for alkaline phosphatase activity.

BGOlv cells = assay: Effect of ErbB tyrosine kinase inhibitors on proliferation of BG01v hESCs (alkaline phosphatase staining after 5 days); format: cell-based
Method: The EGF domain family of ligands bind to the ErbB family of receptor tyrosine kinases. To examine the effect of known inhibitors of ErbB tyrosine kinases in hESCs, BGOlv cells were plated in 6 well trays on MATRIGEL™ diluted at 1:1000, in defined culture medium (DC) containing 100 ng/mL LongR3-IGFl, 8 ng/mL FGF2 and 1 ng/mL Activin A. On the next day, DMSO (carrier control), 50 nM-20 µM AG1478 (an ErbB1 inhibitor), or 100 nM-20 µM AG879 (an ErbB2 inhibitor) was added with fresh medium. The cells were cultured for an additional 5 days, with daily media changes. The cultures were then fixed and stained for alkaline phosphatase activity.

[1] = tested on: pancreatic epithelial and endocrine type cells; assay: Re-aggregation of dissociated stage 4 or stage 5 adherent cultures with ROCK inhibitor; format: cell-based, human; details: 10µM
Method: Adherent cultures at either stage 4 (about d10 - d14 into the differentiation protocol; pancreatic epithelial and endocrine type cells) or stage 5 (about day 16 to day 30 into the differentiation protocol; endocrine precursor and endocrine cells) were similarly dissociated into single cells, counted, and pelleted. The cell pellet was then resuspended in DMEM CMRL supplemented Pen/Strep and Glutamax, and IX B27-supplement and DNase (50-100 µg/ml, Roche Diagnostics) and 0-2% FBS. […] Cells were equally distributed into 6-well plates and placed on a rotating platform at 100 rpm to 140 rpm form 4 hours to overnight substantially as described above.

BG02 cells = assay: Suspension cultures with and without an apoptosis inhibitor, cell counting; format: cell-based, human
Method: To attenuate the loss of cells after initial passaging in suspension, an inhibitor of apoptosis was added to the medium. Cells were passaged as in Example 12, except that Y-27632, an inhibitor of p160-Rho-associated coiled-coil kinase (ROCK), was added to the medium.
Suspension aggregates of BG02 cells were formed by seeding 2x10^6 single cells in 6-well dishes in 3 mL DC-HAIF medium, at 100 rpm on a rotating platform in an incubator (Table 2, Experiment A). 10 µM Y27632 ROCK inhibitor was added to test wells for the course of the experiment and the cultures observed daily and counted after 24 hours (day 1) and after 4 or 5 days. […] Cell counting confirmed that more viable cells were present in the presence of inhibitor (Table 2, Experiment A). This difference in cell number persisted throughout the course of the culture period, with more cells also observed on day 4, compared to cultures without inhibitor. As with previous suspension culture experiments, cells exposed to Y27632 could also be serially passaged, and maintained in an undifferentiated state (not shown).
As previous experiments had shown that growth rates of cells in suspension and adherent culture were similar after the initial 24 hours, an experiment was performed where Y27632 was removed after this initial period (Table 2, Experiment B). […] 1.4x10^7 (+Y27632) and 1.8x107 (+/-Y27632) viable cells were generated when inhibitor was present compared to 3.9x10^6 cells in untreated cultures. This analysis confirmed that Y27632 had the largest impact during the first 24 hours of suspension hESC culture.
Because of the enhanced survival and aggregation observed in the presence of Y27632, an experiment was performed to examine if it was possible to reduce the number of cells used to seed suspension cultures (Table 2, Experiment C). […] To determine if addition of a ROCK inhibitor would allow cell seeding at lower densities, a range of cell concentrations (from about 2x10^6 total cells down to about 1x10^5 total cells was used to seed suspension cultures in 6-well trays cells in 3 mL DC-HAIF. 10 µM Y27632 was added to all conditions, and the cell number and viability assessed on day 5. Successful aggregation and expansion was observed even at low seeding densities. An approximately 13 fold expansion of viable cells was observed even cultures that were only seeded with 1x10^5 cells. Inhibition of ROCK with Y27632 therefore facilitated initial survival of hESCs at much lower densities in this suspension system. Table 2 - Suspension Cultures with and without an Apoptosis Inhibitor

ES cells = assay: Suspension cultures in various media, cell counting; format: cell-based; details: added to HAIF, HAI, HI
Method: To determine if suspensions of ES cells could be cultured in the absence of FGF2 and/or Activin A, ES cells were cultured in a variety of media, with and without these factors. […] In addition, the cells in each media were successfully passaged with no morphological signs of differentiation. Table 3 - Suspension Cultures in Various Media

[2] = Expt. A, seeding 2x10^6, p0, day 1
[3] = Expt. A, seeding 2x10^6, p0, day 4
[4] = Expt. A, seeding 2x10^6, p1, day 4
[5] = Expt. B, seeding 2x10^6, p0, day 1
[6] = Expt. B, seeding 2x10^6, p0, day 5, +/-Y27632 = inhibitor removed after 24 hours, listed as +/-Y27632
[7] = Expt. B, seeding 2x10^6, p0, day 5, +/-Y27632 = inhibitor removed after 24 hours, listed as +Y27632
[8] = Expt. C, seeding 1x10^6, p0, day 1
[9] = Expt. C, seeding 1x10^6, p0, day 5
[10] = Expt. C, seeding 2x10^6, p0, day 1
[11] = Expt. C, seeding 2x10^6, p0, day 5
[12] = Expt. C, seeding 2.5x10^5, p0, day 1
[13] = Expt. C, seeding 2.5x10^5, p0, day 5
[14] = Expt. C, seeding 5x10^5, p0, day 1
[15] = Expt. C, seeding 5x10^5, p0, day 5
[16] = Expt. C, seeding 10^5, p0, day 1
[17] = Expt. C, seeding 10^5, p0, day 5

Structure (SMILES): COc1cc(C=C(C#N)C(N)=O)cc(CSc2nc3ccccc3s2)c1O [AG825, tyrphostin AG825]
- autophosphorylation of ErbB2 at tyrosine-1248 (ErbB2): inhibited autophosphorylation of ErbB2 at tyrosine-1248; also recorded: inhibits ErbB2 Y1248 phosphorylation
- proliferation (BG02 hESCs; 50 µM, conditioned medium (CM)): significantly inhibited proliferation
- time viable hESCs could be maintained (BG02 hESCs; in presence of AG825): > 5 days

Structure (SMILES): CC(C)(C)c1cc(/C=C(\C#N)C(N)=S)cc(C(C)(C)C)c1O [AG879]
- proliferation (R1 mouse ES cells; at 20 µM): may have slowed proliferation
- cell growth (R1 mouse ES cells; at 50 µM): substantially inhibited cell growth
- differentiation (R1 mouse ES cells; mESCs grown in AG879): did not appear to differentiate
- concentration required to inhibit proliferation, mESCs relative to BG01v cells (R1 mouse ES cells; mESCs vs BG01v cells grown in defined conditions): ~10 x
- cell growth (BGOlv cells; at 5 µM, 5 days): substantially inhibited cell growth; also recorded: substantially slowed cell growth
- cell death (BGOlv cells; at 20 µM): caused cell death
- differentiation (BGOlv cells; cultures grown in AG879): inhibit proliferation without inducing differentiation

Structure (SMILES): COc1cc2ncnc(Nc3cccc(Cl)c3)c2cc1OC [AG1478]
- cell proliferation (R1 mouse ES cells; 1-50 µM, 8 days, 10% FBS, 10% KSR, LIF): no apparent affect on cell proliferation; also recorded: did not overtly inhibit proliferation
- cell proliferation (BGOlv cells; 50 nM-20 µM, 5 days, DC medium): neither DMSO nor AG1478 (50 nM-20 µM) had an apparent affect on cell proliferation; also recorded: did not appear to affect proliferation

Structure (SMILES): C[C@@H](N)[C@H]1CC[C@H](C(=O)Nc2ccncc2)CC1 [Y27632]
- cell survival [1]: supported cell survival
- expansion of viable cells (BG02 cells; 10 µM Y27632, seeded with 1x10^5 cells, day 5): approximately 13 fold
- initial aggregation in suspension culture (BG02 cells; 10 µM, compared to medium without inhibitor): much larger aggregates were formed
- differentiation state by RT-PCR (BG02 cells; BG02 suspension culture in the presence of Y27632): remained undifferentiated
- cell number when the aggregates were split again (BG02 cells; Expt. A, p1, vs without inhibitor): almost twice as many cells were observed
- Cell counts: total (BG02 cells; [2]): 1.6x10^6
- Cell counts: viable (BG02 cells; [2]): 1.2x10^6
- Cell counts: viable, % (BG02 cells; [2]): 74%
- Cell counts: total (BG02 cells; [3]): 7.8x10^6
- Cell counts: viable (BG02 cells; [3]): 7.1x10^6
- Cell counts: viable, % (BG02 cells; [3]): 91%
- Cell counts: total (BG02 cells; [4]): 4.6x10^6
- Cell counts: viable (BG02 cells; [4]): 4.2x10^6
- Cell counts: viable, % (BG02 cells; [4]): 91%
- Cell counts: total (BG02 cells; [5]): 1.9x10^6
- Cell counts: viable (BG02 cells; [5]): 1.4x10^6
- Cell counts: viable, % (BG02 cells; [5]): 73%
- Cell counts: total (BG02 cells; [6]): 1.9x10^7
- Cell counts: viable (BG02 cells; [6]): 1.8x10^7
- Cell counts: viable, % (BG02 cells; [6]): 96%
- Cell counts: total (BG02 cells; [7]): 1.5x10^7
- Cell counts: viable (BG02 cells; [7]): 1.4x10^7
- Cell counts: viable, % (BG02 cells; [7]): 92%
- Cell counts: total (BG02 cells; [8]): 8.7x10^5
- Cell counts: viable (BG02 cells; [8]): 6.6x10^5
- Cell counts: viable, % (BG02 cells; [8]): 76%
- Cell counts: total (BG02 cells; [9]): 8.6x10^6
- Cell counts: viable (BG02 cells; [9]): 7.8x10^6
- Cell counts: viable, % (BG02 cells; [9]): 91%
- Cell counts: total (BG02 cells; [10]): 1.9x10^6
- Cell counts: viable (BG02 cells; [10]): 1.6x10^6
- Cell counts: viable, % (BG02 cells; [10]): 84%
- Cell counts: total (BG02 cells; [11]): 1.4x10^7
- Cell counts: viable (BG02 cells; [11]): 1.2x10^7
- Cell counts: viable, % (BG02 cells; [11]): 90%
- Cell counts: total (BG02 cells; [12]): 2.6x10^5
- Cell counts: viable (BG02 cells; [12]): 2.3x10^5
- Cell counts: viable, % (BG02 cells; [12]): 91%
- Cell counts: total (BG02 cells; [13]): 2.7x10^6
- Cell counts: viable (BG02 cells; [13]): 2.5x10^6
- Cell counts: viable, % (BG02 cells; [13]): 91%
- Cell counts: total (BG02 cells; [14]): 4.6x10^5
- Cell counts: viable (BG02 cells; [14]): 3.5x10^5
- Cell counts: viable, % (BG02 cells; [14]): 75%
- Cell counts: total (BG02 cells; [15]): 5.7x10^6
- Cell counts: viable (BG02 cells; [15]): 5.3x10^6
- Cell counts: viable, % (BG02 cells; [15]): 93%
- Cell counts: total (BG02 cells; [16]): 6.8x10^4
- Cell counts: viable (BG02 cells; [16]): 5.4x10^4
- Cell counts: viable, % (BG02 cells; [16]): 79%
- Cell counts: total (BG02 cells; [17]): 1.4x10^6
- Cell counts: viable (BG02 cells; [17]): 1.3x10^6
- Cell counts: viable, % (BG02 cells; [17]): 92%
- yield of cells generated by day 5 (ES cells): increased the yield of cells generated by day 5 in all conditions
